Test results reported in patent US10730826B2, “Ketone inhibitors of lysine gingipain” (CORTEXYME, INC., priority 2016, dated 2020).

Experiments:
Cathepsin S = Cathepsin S (Homo sapiens (Human), UniProt P25774); test: Cathepsin S inhibition assay; assay type: biochemical; details: Table 4; read-out: IC50 (nM) CatS
Method: (§1) The capacities of compounds of the present invention to inhibit the activity of cathepsins B, H, K, L, and S were measured in similar assays. Boc-Leu-Arg-Arg-AMC (20 μM) in sodium acetate buffer (50 mM, pH 5.5) containing DTT (1 mM) and EDTA (2 mM) was used for the Cathepsin B assay. L-Arg-AMC (20 μM) in sodium acetate buffer (50 mM, pH 5.5) containing DTT (1 mM) and EDTA (2 mM) was used for the Cathepsin H assay. Z-Phe-Arg-AMC (10 μM) in HEPES buffer (50 mM, pH 7.4) containing DTT (2.5 mM) and EDTA (1 mM) was used for the Cathepsin K assay. Z-Phe-Arg-AMC (20 μM) in sodium acetate buffer (50 mM, pH 5.5) containing DTT (1 mM) and EDTA (2 mM) was used for the Cathepsin L assay. Z-Leu-Arg-AMC (10 μM) in sodium acetate buffer (25 mM, pH 4.5) containing DTT (2.5 mM) and NaCl (50 mM) was used for the Cathepsin S assay. The capacities of the compounds to inhibit the activity of cathepsins F, V, and Z were also measured.
(§2) Further assays to measure the inhibitory activity of compounds of the present invention against Kgp and cathepsins B, H, K, L, and S were conducted as described in Example 66. The capacities of the compounds to inhibit the activity of cathepsins F, V, and Z were also measured.

Cathepsin H = Cathepsin H (Homo sapiens (Human), UniProt P09668); test: Cathepsin H inhibition assay; assay type: biochemical; details: Table 4; read-out: IC50 (nM) CatH
Chain of Cathepsin H (P09668 98-335, species assumed): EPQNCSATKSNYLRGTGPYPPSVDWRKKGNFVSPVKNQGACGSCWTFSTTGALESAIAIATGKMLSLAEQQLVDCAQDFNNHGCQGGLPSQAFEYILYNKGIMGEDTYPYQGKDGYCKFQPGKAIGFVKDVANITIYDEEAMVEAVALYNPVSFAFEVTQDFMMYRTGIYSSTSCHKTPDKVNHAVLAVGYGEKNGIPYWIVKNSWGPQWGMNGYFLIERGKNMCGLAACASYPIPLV
Method: as §1, §2

cathepsin F = cathepsin F (Homo sapiens (Human), UniProt Q9UBX1); test: Cathepsin F inhibition assay; assay type: biochemical; details: Table 4; read-out: IC50 (nM) CatF
Chain of cathepsin F (Q9UBX1 271-484): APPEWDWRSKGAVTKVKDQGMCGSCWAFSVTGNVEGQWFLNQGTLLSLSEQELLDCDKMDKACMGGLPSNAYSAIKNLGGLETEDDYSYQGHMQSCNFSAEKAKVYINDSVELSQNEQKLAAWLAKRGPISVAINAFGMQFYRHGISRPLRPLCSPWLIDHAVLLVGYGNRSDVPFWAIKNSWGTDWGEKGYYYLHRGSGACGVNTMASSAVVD
Method: as §1, §2

cathepsin Z = cathepsin Z (Homo sapiens (Human), UniProt Q9UBR2); test: Cathepsin Z inhibition assay; assay type: biochemical; details: Table 4; read-out: IC50 (nM) CatZ
Chain of cathepsin Z (Q9UBR2 62-303): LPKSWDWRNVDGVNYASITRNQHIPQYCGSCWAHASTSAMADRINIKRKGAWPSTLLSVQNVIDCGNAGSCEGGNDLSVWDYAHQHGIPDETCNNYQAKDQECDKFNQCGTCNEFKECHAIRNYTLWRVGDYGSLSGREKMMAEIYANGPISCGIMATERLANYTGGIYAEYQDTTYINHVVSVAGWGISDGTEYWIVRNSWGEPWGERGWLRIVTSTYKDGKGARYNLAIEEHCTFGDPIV
Method: as §1, §2

arginine gingipain, Rgp = test: Inhibition of arginine gingipain; assay type: biochemical, Porphyromonas gingivalis; details: 100 nM
P. gingivalis W83 [1] = test: Mouse periodontitis model, alveolar bone loss; assay type: in vivo, BALB/C mice; details: week 5-10
Method: (§3) At the beginning of the study, eight week old BALB/C female mice received antibiotic in drinking water (sulfamethoxazolum 0.87 mg/mL, trimethoprimum 0.17 mg/mL) for 10 days to reduce microbiome protection from experiment infection. Experimental periodontitis was induced by ligature placement followed by multiple exposures to P. gingivalis. During the ligature procedure mice were anesthetized with an intraperitoneal injection of ketamine (200 mg/kg) and xylazine (10 mg/kg), and eyes were lubricated with ointment (Puralube Vet; Pharmaderm, Melville, N.Y.). Next, a 5-0 silk ligature (Roboz Surgical Instrument Co.) was tied around the upper maxillary left and right second molar. Sutures were applied and tied gently to prevent damage to the periodontal tissue.
(§4) Mice (n=8-10/arm) were infected for 6 weeks every other day. For infection, […]. of bacteria solution were applied topically to the buccal surface of the maxillae. For preparation of the bacteria, P. gingivalis W83 (ATCC, Rockville, Md.) was streaked on Tryptic Soy Broth (TSB) agar plates (5% sheep blood, supplemented with 0.5 mg/mL L-cysteine, 5 μg/mL hemin, and 0.5 μg/mL vitamin K) and grown under anaerobic conditions at 37° C. for 5-7 days. Samples were then inoculated in TSB with hemin, vitamin K and L-cysteine (TSB-HKC) until mid-log phase (OD600=0.5-0.7). Bacteria were washed in PBS and prepared at final concentration of 1×10^10 cells/mL in PBS+2% methylcellulose (CMC).
(§5) Vehicle-treated animals received PBS only. At 5 weeks, a subgroup of animals (n=16) were euthanized to gather baseline measurements before the start of treatment. After 10 weeks, mice were euthanized and the brain, serum, and maxillary tissues were harvested and frozen in liquid nitrogen.
Bone loss in the maxillae was measured ex vivo blinded using OsiriX MD software (PixmeoSARL, Bernex, Switzerland). […] The distance between the cementoenamel junction (CEJ) and the alveolar bone crest (ABC) was measured from the CEJ to a reference line on the ABC which was placed perpendicular to the superficial root one each side of the second molar. […]

P. gingivalis W83 [2] = test: Mouse periodontitis model, P. gingivalis DNA in brain tissue (qPCR); assay type: in vivo, BALB/C mice; details: between week 5 and 10
Method: as §3, §4, §5
DNA was extracted from brain tissue using the DNeasyBLOOD & TISSUE KIT (Qiagen, Germany) according to manufacturer's protocol. […] The number of copies of the P. gingivalis genome was calculated by matching Cq values with a standard curve prepared from serial dilutions of cultured P. gingivalis W83 (WT). […]

P. gingivalis = test: Related studies: brain abeta42 and neuroinflammation; assay type: in vivo

Chain of Cathepsin S (P25774 115-331, species assumed): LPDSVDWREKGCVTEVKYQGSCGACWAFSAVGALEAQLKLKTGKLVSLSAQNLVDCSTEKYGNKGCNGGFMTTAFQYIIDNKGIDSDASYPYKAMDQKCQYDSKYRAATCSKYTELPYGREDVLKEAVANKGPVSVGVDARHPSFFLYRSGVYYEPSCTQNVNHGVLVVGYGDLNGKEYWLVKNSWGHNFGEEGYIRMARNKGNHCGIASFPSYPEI

## NCCCC[C@H](NC(=O)C1CCCC1)C(=O)COc1c(F)ccc(F)c1F [Compound 1, (S)—N-(7-amino-2-oxo-1-(2,3,6-trifluorophenoxy)heptan-3-yl)cyclopentanecarboxamide]
Cathepsin S
  IC50: > 10000 nM
Cathepsin H
  IC50: 560 nM
Cathepsin F
  IC50: 6100 nM
Cathepsin Z
  IC50: > 10000 nM
Arginine gingipain, Rgp
  inhibition of arginine gingipain, Rgp: does not inhibit
P. gingivalis W83 [1]; 3 mg/kg oral b.i.d.
  alveolar bone loss: trended to improvement but did not result in significant improvement
P. gingivalis W83 [1]; 10 mg/kg oral b.i.d.
  alveolar bone loss: improved
P. gingivalis W83 [1]; 30 mg/kg oral b.i.d.
  alveolar bone loss: improved
P. gingivalis W83 [2]; 3 mg/kg
  reduction in P. gingivalis DNA copy number in brain tissue: ~50%
P. gingivalis W83 [2]; 10 mg/kg
  reduction in P. gingivalis DNA copy number in brain tissue: ~50%
P. gingivalis W83 [2]; 30 mg/kg
  reduction in P. gingivalis DNA copy number in brain tissue: ~80%
P. gingivalis
  induction of brain abeta42: reduce induction
  neuroinflammation: reduce induction
